Test results: US7947707B2, “Nitrogenated heterocyclic compound and pharmaceutical composition comprising the same” (Kissei Pharmaceutical Co., Ltd., priority 2005, dated 2011)

Experiments:
[1] = biological target: T1, xanthine oxidase (from buttermilk) (Bos taurus, UniProt P80457); experiment: Xanthine oxidase inhibitory effect; format: biochemical; conditions: 100 μmol/L xanthine, 5 mU/mL enzyme; read-out: X.O. inhibition IC50
T1 construct: xanthine oxidase (from buttermilk; biozyme laboratories); purchased biozyme laboratories; host or cells: buttermilk (natural source)
T1 sequence (P80457 whole entry): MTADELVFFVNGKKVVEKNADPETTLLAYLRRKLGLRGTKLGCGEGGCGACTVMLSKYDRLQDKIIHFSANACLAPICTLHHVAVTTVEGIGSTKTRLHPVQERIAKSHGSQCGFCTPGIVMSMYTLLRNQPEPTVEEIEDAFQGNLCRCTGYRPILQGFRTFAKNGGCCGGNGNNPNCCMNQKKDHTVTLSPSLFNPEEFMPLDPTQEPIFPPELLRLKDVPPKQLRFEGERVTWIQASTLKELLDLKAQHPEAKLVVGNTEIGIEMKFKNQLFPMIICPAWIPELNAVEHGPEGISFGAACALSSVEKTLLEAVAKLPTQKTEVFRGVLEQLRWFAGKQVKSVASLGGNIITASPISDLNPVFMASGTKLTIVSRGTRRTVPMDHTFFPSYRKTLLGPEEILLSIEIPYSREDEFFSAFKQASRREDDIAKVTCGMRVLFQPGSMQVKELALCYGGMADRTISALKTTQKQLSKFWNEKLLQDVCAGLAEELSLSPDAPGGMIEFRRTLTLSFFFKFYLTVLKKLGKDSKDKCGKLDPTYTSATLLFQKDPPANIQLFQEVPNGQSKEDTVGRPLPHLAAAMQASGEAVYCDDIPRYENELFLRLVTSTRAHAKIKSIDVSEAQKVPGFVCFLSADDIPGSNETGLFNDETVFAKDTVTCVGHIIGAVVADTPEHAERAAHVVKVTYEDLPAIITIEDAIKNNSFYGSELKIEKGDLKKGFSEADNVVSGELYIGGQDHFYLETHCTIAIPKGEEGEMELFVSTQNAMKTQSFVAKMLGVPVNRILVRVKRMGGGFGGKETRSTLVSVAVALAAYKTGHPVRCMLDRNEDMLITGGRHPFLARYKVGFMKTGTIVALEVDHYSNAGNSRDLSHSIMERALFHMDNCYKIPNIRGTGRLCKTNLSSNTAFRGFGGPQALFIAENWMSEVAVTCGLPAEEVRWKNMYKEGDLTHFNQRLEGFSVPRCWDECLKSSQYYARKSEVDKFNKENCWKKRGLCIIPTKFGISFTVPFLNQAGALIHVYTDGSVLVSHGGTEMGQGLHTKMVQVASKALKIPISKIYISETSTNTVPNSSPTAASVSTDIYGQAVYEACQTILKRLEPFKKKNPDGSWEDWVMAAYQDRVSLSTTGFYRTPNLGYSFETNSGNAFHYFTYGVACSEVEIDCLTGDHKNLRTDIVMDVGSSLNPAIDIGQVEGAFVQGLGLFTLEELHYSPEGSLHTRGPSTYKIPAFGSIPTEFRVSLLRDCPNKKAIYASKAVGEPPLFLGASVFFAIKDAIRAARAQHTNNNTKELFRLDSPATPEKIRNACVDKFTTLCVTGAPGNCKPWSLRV
Experimental: Assay for inhibition of xanthine oxidase was performed in 100 μmol/L substrate concentration (final concentration), 5 mU/mL enzyme concentration (final concentration) and compounds of the present invention as test compounds which were prepared with xanthine oxidase (from buttermilk; biozyme laboratories), xanthine (Sigma) and phosphate-buffered saline (PBS). In addition, all test compounds were frozen for preservation in condition of 20 mmol/L DMSO solution and used for experiments after thawing at need. Method is following: after diluted solution of test compound was added to 90 μL of 11.1 mU/mL enzyme solution, the mixture was incubated for 10 minutes after mixing. To start reaction, 100 μL of 200 μmol/L substrate solution was added to there, 10 minutes later, the reaction was stopped by addition of 500 μL of 0.5 mol/L sulfuric acid, and then absorbance at […] was measured. Final concentration of test compound was a single concentration, 10 μmol/L in single well for initial screening and 6 concentrations, 10, 1 μmol/L, 100, 10, 1 nmol/L, 100 pmol/L in duplicate for assay to calculate 50% inhibitory concentration (IC50) which were used for assay. Percent inhibition was calculated according to the formula described below. Percent inhibition (%)=(A−B)/(A−C)×100
In formula, A means absorbance in wells without test compound, B means absorbance in wells with test compound, C means absorbance in blank wells.
IC50 value was calculated from percent inhibition in each concentration by nonlinear regression method.

[2] = biological target: T2, HEK293 cells forced to express URAT1 (Homo sapiens, UniProt Q96S37); experiment: URAT1 inhibitory effect, [8-14C] uric acid uptake; format: cell-based; conditions: test compound 100 μmol/L, 20 μmol/L uric acid, 5 minutes uptake
T2 construct: host or cells: HEK293
T2 sequence (Q96S37 1-553): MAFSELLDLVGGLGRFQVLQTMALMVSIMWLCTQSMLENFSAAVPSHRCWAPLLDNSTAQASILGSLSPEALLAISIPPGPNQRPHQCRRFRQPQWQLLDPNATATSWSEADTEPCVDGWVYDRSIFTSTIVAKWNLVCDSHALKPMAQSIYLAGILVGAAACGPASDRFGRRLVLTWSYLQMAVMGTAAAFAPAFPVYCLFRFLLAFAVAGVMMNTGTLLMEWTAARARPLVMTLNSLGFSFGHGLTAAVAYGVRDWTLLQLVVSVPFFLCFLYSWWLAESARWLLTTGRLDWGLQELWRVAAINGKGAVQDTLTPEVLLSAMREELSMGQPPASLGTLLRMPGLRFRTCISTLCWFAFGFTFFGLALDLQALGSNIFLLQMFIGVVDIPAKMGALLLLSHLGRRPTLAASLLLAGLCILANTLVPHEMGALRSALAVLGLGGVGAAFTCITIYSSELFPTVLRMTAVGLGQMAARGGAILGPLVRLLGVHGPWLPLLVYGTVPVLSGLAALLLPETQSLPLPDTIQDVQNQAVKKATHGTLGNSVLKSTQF
From the text: DMEM containing 10% FBS (supplemented with 0.05% geneticin, Nissui Pharmaceutical Co., Ltd.), HEK293 cells forced to express URAT1 (HCS (Human cell Systems), (Fuji Biomedix)), HBSS as washing buffer and HBSS substituted with Na-gluconate (NaCl in HBSS was substituted with Na-gluconate) were used for assay. [8-^14C] uric acid (moravek) was used as an uric acid reagent and added to assay buffer at 20 μmol/L as a final concentration. Compounds of the present invention were used as a test compound, 20 mmol/L stock solution of each test compound (DMSO solution) was diluted appropriately, and then the diluted test compound solution was added to assay buffer at 100 μmol/L as a final concentration including 0.5% final concentration of DMSO.
To prepare assay plates, at first, cells on subculture petri dish were peeled off using treatment of 0.05% trypsin-EDTA solution, and then seeded on Biocoat Poly-D-Lysine Cellware 24 well plate (BECTON DICKINSON) at a density of 2×10^5 cells/well and cultured for 2 days.
For the uptake study, at first, culture medium was removed by aspiration and cells were washed twice with HBSS (37° C.), then the buffer was replaced with 1 mL of assay buffer (37° C.). Cells were pre-incubated for 10 minutes. And then, the buffer was removed by aspiration and 0.5 mL of radioisotope ligand solution incubated at 37° C. was added, then cells were incubated for 5 minutes. After uptake, radioisotope solution was removed by aspiration, and immediately cells were washed three times with ice-cold HBSS, followed by resolving by addition of 0.5 mL of 0.5 mol/L NaOH. Cell lysate solution was transferred to a vial or 24 well plate for Betaplate, and mixed with 0.5 mL of liquid scintillator (Optiphase ‘Super Mix’; Perkin Elmer). Radioisotope activity was measured (using Betaplate 1450). As mean count in control solution not including test compound was 100%, percent inhibition was calculated by determining percent decrease in mean count in solution including test compound from mean count in control solution.

[3] = tested on: potassium oxonate induced hyperuricemia; experiment: Blood hypouricemic effect, potassium oxonate induced hyperuricemia; format: in vivo; conditions: Rattus norvegicus, po; 10 mg/kg orally; male SD rats; serum 2 hours after administration; read-out: Decrease (%) in UA concentration
Experimental: Effect of compound of the present invention as a test compound was studied on potassium oxonate induced hyperuricemia with male 7-week-old SD rats (Charles River Japan) and potassium oxonate (Aldrich) suspended in 1% gum arabic solution. Test compound was suspended in 0.5% CMC-Na solution, and then administered orally. Dosing was 10 mg/kg or 50 mg/kg. All volume of administered solution was 10 mL/kg. Potassium oxonate 250 mg/kg was administered to dorsal region of rats subcutaneously, 1 hour later each test compound was administered orally. For control group, only 0.5% CMC-Na solution as a vehicle was administrated. At 2 hours after administration of test compounds or vehicle, blood was collected under ether anesthesia, and serum was separated according to general method. Treated number was 5 for each group.
Measurement of concentration of uric acid was conducted with following prepared reagents. The deproteinization reagent was prepared in the following manner; 100 g of sodium tungstate was added to a 2 L flask, and exactly 75 mL of 85% phosphoric acid and 500 mL of water were added to the flask equipped with a reflux condenser, and heated for an hour. After cooling, the resulting faint yellow-green solution was diluted to 1 L exactly. Sodium carbonate-urea reagent was prepared in the following manner; 14 g of anhydrous sodium carbonate and 14 g of urea were dissolved in water and final volume of the solution was adjusted to 100 mL exactly. Phosphotungstic coloring reagent was prepared in 4-fold dilution of deproteinzation reagent described above with water. UA standard solution (10 mg/dL: Kyokuto pharmaceutical industrial CO., LTD) was used as an uric acid standard solution, and then serially diluted uric acid standard solution with purified water was also used for standard curve.
Three hundred μL of serum or standard was added to 2.1 mL of purified water, and then 150 μL of deproteination reagent was also added to the solution, followed by mixing. After incubating for 20 minutes, the mixture was centrifuged at 3000 rpm for 10 minutes. Sodium carbonate-urea reagent (0.5 mL) was added to 1.5 mL of supernatant, and the mixture was incubated for 20 minutes. Next, after addition of 250 μL of coloring reagent, further incubation was carried over 15 minutes. Absorbance at 660 nm was measured, and concentration of uric acid was calculated with standard curve. Percent decrease in concentration of uric acid was calculated by following formula. Percent decrease in concentration of uric acid (%)=(A−B)/A×100
In formula, A means average of concentration of blood uric acid in control group, B means average of concentration of blood uric acid in test compounds-treated group.

| Compound | IC50 [1] | inhibition at 100 µM [2] | inhibition in vivo at 10 mg/kg [3] |
| --- | --- | --- | --- |
| COc1cccc(-c2nn(-c3ccc(C(=O)O)cc3)cc2C#N)c1 [XO-TT552] | 5.59 nM | – | – |
| COc1ccc2c(c1)c(C#N)cn2-c1ccc(C(=O)O)cc1 [XO-CH183] | 14.5 nM | 80.6% | – |
| N#Cc1cn(-c2ccc(C(=O)O)cc2)cc1-c1ccc(F)cc1 [XO-B438] | 5.03 nM | – | 69.3% |
| N#Cc1cn(-c2ccc(C(=O)O)cc2)c2cc(C(F)(F)F)ccc12 [XO-CH206] | – | 98.1% | – |
| N#Cc1cn(-c2ccc(C(=O)O)cc2)cc1-c1ccccc1C(F)(F)F [XO-B412] | 6.38 nM | 50.5% | – |
| Cc1ccccc1-c1nn(-c2ccc(C(=O)O)cc2)cc1C#N [XO-TT573] | 4 nM | – | 66.3% |
| COc1ccccc1-c1cn(-c2ccc(C(=O)O)cc2)cc1C#N [XO-B403] | 5.98 nM | – | 62.1% |
| N#Cc1cn(-c2ccc(C(=O)O)cc2)cc1-c1ccccc1 [XO-B327] | 4.9 nM | – | 74.1% |
| N#Cc1cn(-c2ccc(-c3nnn[nH]3)cc2)c2ccccc12 [XO-CH150] | 31.6 nM | 79.3% | – |
| COc1ccc2c(C#N)cn(-c3ccc(C(=O)O)cc3)c2c1 [XO-CH207] | 96.5 nM | 93.9% | – |
| Cc1ccc(-c2nn(-c3ccc(C(=O)O)cc3)cc2C#N)cc1 [XO-TT537] | 4.86 nM | – | – |
| N#Cc1cn(-c2ccc(C(=O)O)cc2)c2ncc(Br)cc12 [XO-KT16] | 99.2 nM | 92.4% | – |
| Cc1cccc2c(C#N)cn(-c3ccc(C(=O)O)cc3)c12 [XO-CH205] | – | 95.7% | – |
| Cc1c(-c2ccccc2)c(C#N)cn1-c1ccc(C(=O)O)cc1 [XO-B440] | 15.2 nM | – | 57.6% |
| Cn1cccc1-c1cn(-c2ccc(C(=O)O)cc2)cc1C#N [XO-B410] | 5 nM | – | 59.1% |
| N#Cc1cnc2c(c1)c(C#N)cn2-c1ccc(C(=O)O)cc1 [XO-KT20] | – | 64.6% | – |
| N#Cc1cn(-c2ccc(C(=O)O)cc2)nc1-c1ccccc1 [XO-TT469] | 8.18 nM | – | 75% |
| N#Cc1nn(-c2ccc(C(=O)O)cc2)nc1-c1ccccc1 [XO-B366] | 77.7 nM | – | – |
| N#Cc1cn(-c2ccc(C(=O)O)cc2)c2nc(Cl)ccc12 [XO-KT18] | – | 95.2% | – |
| N#Cc1cn(-c2ccc(C(=O)O)cc2)nc1-c1ccccc1Cl [XO-TT524] | 5.18 nM | – | 68.7% |
| N#Cc1cn(-c2ccc(C(=O)O)cc2)nc1-c1ccccc1C(F)(F)F [XO-TT561] | 8.47 nM | – | – |

| Compound | IC50 [1] | inhibition at 100 µM [2] | inhibition in vivo at 10 mg/kg [3] |
| --- | --- | --- | --- |
| N#Cc1cn(-c2ccc(C(=O)O)cc2)nc1-c1ccc(F)cc1 [XO-TT572] | 4.12 nM | – | 56.1% |
| Cc1ccc(-c2cn(-c3ccc(C(=O)O)cc3)cc2C#N)cc1 [XO-B423] | 4.26 nM | – | 66.6% |
| COc1ccc(-c2nn(-c3ccc(C(=O)O)cc3)cc2C#N)cc1 [XO-TT544] | 3.77 nM | – | 71.1% |
| Cc1ccsc1-c1nn(-c2ccc(C(=O)O)cc2)cc1C#N [XO-TT545] | 5.21 nM | – | 75.8% |
| N#Cc1cn(-c2ccc(C(=O)O)cc2)cc1-c1ccc(Cl)cc1 [XO-B421] | 5.71 nM | – | 57.8% |
| Cc1ccc(-c2cn(-c3ccc(C(=O)O)cc3)cc2C#N)s1 [XO-B399-2] | 5.56 nM | – | 69.4% |
| N#Cc1cn(-c2ccc(C(=O)O)cc2)c2ncccc12 [XO-KT10] | – | 92.3% | – |
| N#Cc1cn(-c2ccc(C(=O)O)cc2)cc1-c1ccccc1F [XO-B436] | 3.71 nM | – | 77.3% |
| COc1ccc(-c2cn(-c3ccc(C(=O)O)cc3)cc2C#N)cc1 [XO-B422] | 3.56 nM | – | 79% |
| N#Cc1cn(-c2ccc(C(=O)O)cc2)cc1-c1nccs1 [XO-B420] | 6.33 nM | – | – |
| Cc1ccc(-c2nn(-c3ccc(C(=O)O)cc3)cc2C#N)s1 [XO-TT554] | 5.44 nM | – | 60.5% |
| Cc1ccccc1-c1cn(-c2ccc(C(=O)O)cc2)cc1C#N [XO-B395-1] | 3.59 nM | – | 79.1% |
| N#Cc1cn(-c2ccc(C(=O)O)cc2)nc1-c1ccccc1F [XO-TT559] | 2.91 nM | – | 75.9% |
| N#Cc1cn(-c2ccc(C(=O)O)cc2)cc1-c1ccc(C(F)(F)F)cc1 [XO-B428] | 5.09 nM | – | 68.3% |
| Cc1c(C#N)c2ccccc2n1-c1ccc(C(=O)O)cc1 [XO-CH172] | – | 88.3% | – |
| COc1ccccc1-c1nn(-c2ccc(C(=O)O)cc2)cc1C#N [XO-TT574] | 5.52 nM | – | – |
| N#Cc1nn(-c2ccc(C(=O)O)cc2)c2ccccc12 [XO-KT30] | – | 79.9% | – |
| N#Cc1cn(-c2ccc(C(=O)O)cc2)cc1-c1ccc(Cl)s1 [XO-B414] | 5.86 nM | – | 67.1% |
| N#Cc1cn(-c2ccc(C(=O)O)cc2)cc1-c1ccccc1Cl [XO-B397] | 5.24 nM | – | 76.7% |
| N#Cc1cn(-c2ccc(-c3nnn[nH]3)cc2)nc1-c1ccccc1 [XO-TT473] | 16 nM | – | – |
